This is an account of results in ChEMBL document CHEMBL1201862, “PubChem BioAssay data set” (2004).

Among the test systems are EKVX; OVCAR-3; OVCAR-8; SF-295; MOLT-4; UACC-257; RXF 393; HT-29; SF-268; Malme-3M; HL-60; HCC 2998; IGROV-1; SK-MEL-5; SF-539; HCT-15.
What all share (test): inhibition of tumour cell growth, NCI panel, 48 h

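Five concentrations, 48 hours, 96-well plates. GI50 is the concentration that inhibits growth by half.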 Active and inactive are the calls of the source. Rule as the data show it: active = GI50 up to about 1.1 µM and inactive = higher.

In the case of `CCOC(=O)NN(C(=O)OCC)C(C(=O)c1ccc(Cl)cc1)=C1NCCN1`, the GI50 in the assay with EKVX, in the assay on OVCAR-3, with OVCAR-8, in the assay with SF-295, in the assay with MOLT-4 and in the assay on UACC-257 was > 100 µM (inactive) throughout. For the same molecule, the GI50 with RXF 393, with HT-29, in the assay on SF-268, in the assay on Malme-3M, with HL-60 and in the assay on HCC 2998 was > 100 µM (inactive) each time. Moreover, the GI50 with IGROV-1, with SK-MEL-5 and in the assay with SF-539 was > 100 µM (inactive) throughout.
`CCOC(=O)[C@H](CCCNC(=O)OC(C)(C)C)NCc1ccc(OC)c(OC)c1`: the GI50 with EKVX, with OVCAR-3, in the assay on OVCAR-8, in the assay with SF-295, with MOLT-4 and in the assay with UACC-257 was > 100 µM (inactive) each time. The GI50 in the assay on RXF 393, in the assay with HT-29, with SF-268, in the assay with Malme-3M, in the assay on HL-60 and in the assay with HCC 2998 was > 100 µM (inactive) each time. Also, the GI50 in the assay with IGROV-1, with SK-MEL-5 and in the assay with SF-539 was > 100 µM (inactive) each time.
Take `CCOC(=O)NC(=O)c1cn(-c2ccc(CCOC(=O)NCCCCCCNC(=O)OCCc3ccc(-n4c(=O)[nH]cc(C(=O)NC(=O)OCC)c4=O)cc3)cc2)c(=O)[nH]c1=O`: the GI50 with EKVX is 53.2 µM (inactive); in the assay with OVCAR-3, > 100 µM (inactive); in the assay with OVCAR-8, 40.6 µM (inactive); in the assay with SF-295, 31.6 µM (inactive); with MOLT-4, 58.1 µM (inactive); with UACC-257, > 72.8 µM (inactive). In addition, the GI50 in the assay with RXF 393 is > 100 µM (inactive); in the assay on HT-29 it was > 100 µM (inactive); with SF-268, > 49 µM (inactive); in the assay with Malme-3M, 50 µM (inactive); in the assay with HL-60 it was > 100 µM (inactive); with HCC 2998, > 100 µM (inactive). For the same molecule, the GI50 in the assay on IGROV-1 was 75.2 µM (inactive); with HCT-15 it was > 100 µM; with SK-MEL-5, 78.7 µM (inactive); in the assay with SF-539, 23.7 µM (inactive).
On to `C#CCN(C(=O)C(F)(F)F)c1ccc(C(=O)c2ccc(N(CC#C)C(=O)C(F)(F)F)cc2)cc1`, for which the GI50 is 61 µM (inactive) with EKVX; 33.1 µM (inactive) in the assay on OVCAR-3; 36.1 µM (inactive) in the assay on OVCAR-8; 37.8 µM (inactive) with SF-295; 15.1 µM (inactive) in the assay on MOLT-4; 26.4 µM (inactive) in the assay on UACC-257. The GI50 was 35.3 µM (inactive) in the assay with RXF 393; 19.5 µM (inactive) in the assay with HT-29; 38.4 µM (inactive) in the assay with SF-268; 32.6 µM (inactive) in the assay on Malme-3M; 12.9 µM (inactive) in the assay with HL-60; 40.9 µM (inactive) with HCC 2998. Besides, the GI50 was 33.1 µM (inactive) with IGROV-1, 24.6 µM with HCT-15, > 100 µM (inactive) in the assay with SK-MEL-5 and 37.8 µM (inactive) in the assay on SF-539.
`O=C(O)c1ccc(S(=O)(=O)c2ccccc2)c([N+](=O)[O-])c1`: the GI50 in the assay on EKVX, in the assay on OVCAR-3, in the assay on SF-295, in the assay with MOLT-4, with UACC-257 and in the assay with RXF 393 was > 100 µM (inactive) in each case. The GI50 in the assay on HT-29, in the assay with SF-268, with Malme-3M, with HL-60, in the assay with HCC 2998 and in the assay on IGROV-1 was > 100 µM (inactive) throughout. For the same molecule, the GI50 in the assay on HCT-15 was 93.1 µM; in the assay on SK-MEL-5, > 100 µM (inactive); in the assay with SF-539, > 100 µM (inactive).
On to `CCOC(=O)C1=C(Nc2ccc(Br)cc2)OC/C1=N\NC(=O)c1ccccc1O`, for which the GI50 is 18.8 µM (inactive) in the assay on EKVX; 21.4 µM (inactive) in the assay with OVCAR-3; 13.1 µM (inactive) in the assay with OVCAR-8; 14.2 µM (inactive) with SF-295; 11.4 µM (inactive) in the assay on MOLT-4; 23 µM (inactive) with UACC-257. Further, the GI50 is 1.29 µM (inactive) with RXF 393; 40.4 µM (inactive) in the assay on HT-29; 12 µM (inactive) in the assay on SF-268; 35.4 µM (inactive) in the assay with Malme-3M; 20.4 µM (inactive) in the assay on HL-60; 20.3 µM (inactive) with HCC 2998. Also, the GI50 in the assay with IGROV-1 was 6.46 µM (inactive); with HCT-15, 11.7 µM; with SK-MEL-5, 49.7 µM (inactive); with SF-539 it was 11.2 µM (inactive).
As to `O=C(NC1C=Nc2ccccc2NC1=O)c1ccccc1Cl` (centres undefined), the GI50 in the assay with EKVX is 74.8 µM (inactive); with OVCAR-3, 28.4 µM (inactive); in the assay on OVCAR-8 it was 43 µM (inactive); in the assay with SF-295, 57.1 µM (inactive); with MOLT-4, 12.6 µM (inactive); in the assay on UACC-257, 38.5 µM (inactive). For the same molecule, the GI50 with RXF 393 is 13 µM (inactive); in the assay with HT-29, 55.7 µM (inactive); with SF-268, 51.9 µM (inactive); in the assay with Malme-3M it was 58.1 µM (inactive); in the assay on HL-60, 13.5 µM (inactive); in the assay on HCC 2998, 56.4 µM (inactive). The GI50 in the assay with IGROV-1 was 36.8 µM (inactive); with HCT-15 it was 33.7 µM; with SK-MEL-5, 45.8 µM (inactive); in the assay with SF-539 it was > 100 µM (inactive).
In the case of `CCCCCCCCCCCCC(CCCCCCCCCCCC)OP(=O)(O)O`, the GI50 in the assay on EKVX was > 100 µM (inactive); in the assay with OVCAR-3 it was > 100 µM (inactive); in the assay on OVCAR-8, > 100 µM (inactive); in the assay with SF-295, > 100 µM (inactive); in the assay on MOLT-4, 59.2 µM (inactive); in the assay with UACC-257 it was > 100 µM (inactive). In addition, the GI50 with RXF 393 was > 100 µM (inactive); with HT-29 it was > 100 µM (inactive); with SF-268, > 100 µM (inactive); with Malme-3M, > 100 µM (inactive); in the assay on HL-60, 47.3 µM (inactive); in the assay with HCC 2998 it was > 100 µM (inactive). Also, the GI50 with IGROV-1 is 87.3 µM (inactive); in the assay with HCT-15, 88.3 µM; in the assay on SK-MEL-5, > 100 µM (inactive); with SF-539 it was 46.2 µM (inactive).
Consider `COC(=O)C1C=CCC2CCCCC21N1CCCC1` (centres undefined), for which the GI50 is > 100 µM (inactive) with EKVX; 49.4 µM (inactive) in the assay with OVCAR-3; 59.4 µM (inactive) in the assay on OVCAR-8; > 100 µM (inactive) in the assay on SF-295; 64.4 µM (inactive) in the assay with MOLT-4; > 100 µM (inactive) in the assay with UACC-257. The GI50 in the assay with RXF 393 was > 100 µM (inactive); in the assay with HT-29, 48.1 µM (inactive); in the assay on SF-268 it was 63.5 µM (inactive); with Malme-3M it was > 100 µM (inactive); with HL-60, 19.7 µM (inactive); in the assay on HCC 2998, 69.2 µM (inactive). In addition, the GI50 was > 100 µM (inactive) in the assay on IGROV-1, > 100 µM in the assay with HCT-15, 84.3 µM (inactive) with SK-MEL-5 and > 100 µM (inactive) with SF-539.
As to `O=c1cnn2c(n1)sc1ccc3ccccc3c12`, the GI50 in the assay on EKVX is 25.1 µM (inactive); with OVCAR-3 it was > 100 µM (inactive); in the assay on OVCAR-8, > 100 µM (inactive); in the assay with SF-295 it was > 100 µM (inactive); with MOLT-4 it was 30.1 µM (inactive); with UACC-257, > 100 µM (inactive). For the same molecule, the GI50 in the assay with RXF 393 is > 100 µM (inactive); with HT-29, > 100 µM (inactive); in the assay on SF-268, > 100 µM (inactive); in the assay on Malme-3M, > 100 µM (inactive); in the assay on HL-60, 83.9 µM (inactive); in the assay on HCC 2998, > 100 µM (inactive). The GI50 with IGROV-1 is > 100 µM (inactive); with HCT-15, > 100 µM; in the assay on SK-MEL-5, > 100 µM (inactive); in the assay on SF-539, > 100 µM (inactive).
`CCC(=O)N/N=C(\C=C\c1cccc(O)c1)c1sc(Nc2ccc(C)cc2[N+](=O)[O-])nc1C`: the GI50 in the assay with EKVX is > 100 µM (inactive); in the assay with OVCAR-3 it was 71.1 µM (inactive); with OVCAR-8, 71.3 µM (inactive); in the assay with SF-295, 48.4 µM (inactive); in the assay with MOLT-4 it was > 100 µM (inactive); in the assay with UACC-257, > 100 µM (inactive). The GI50 in the assay on RXF 393 was 10.8 µM (inactive); with HT-29, 18.6 µM (inactive); in the assay with SF-268, > 100 µM (inactive); in the assay with Malme-3M, > 100 µM (inactive); with HL-60, 43.4 µM (inactive); in the assay with HCC 2998, > 100 µM (inactive). Besides, the GI50 is > 100 µM (inactive) with IGROV-1, 81.8 µM with HCT-15, > 100 µM (inactive) with SK-MEL-5 and 32.7 µM (inactive) with SF-539.
`COC(=O)/C(C)=C(/CCC1(C)OCCO1)O[Si](C)(C)C`: the GI50 in the assay with EKVX, in the assay with OVCAR-3, in the assay on OVCAR-8, in the assay on SF-295, with MOLT-4 and in the assay with UACC-257 was > 100 µM (inactive) in each case. The GI50 in the assay on RXF 393, with HT-29, in the assay on SF-268, with Malme-3M, in the assay on HL-60 and in the assay on HCC 2998 was > 100 µM (inactive) throughout. Further, the GI50 in the assay on IGROV-1 was > 100 µM (inactive); in the assay with HCT-15, > 100 µM; in the assay with SK-MEL-5, > 100 µM (inactive); in the assay with SF-539, > 100 µM (inactive).
